# Experimental data reported in EP0176033A2, “Isoxazolecarboxylic-acid derivatives, their preparation and use” (BASF Aktiengesellschaft, priority 1984, dated 1986).
# Test system: Rhino-Maus
# Assay: Rhino mouse model: reduction of utriculus diameter after topical application (comedolytic activity)
# Type: in vivo
# Conditions: 100 µl on the back, once daily, 5 days per week, 2 weeks, versus untreated control group
# Excerpt: Die antiarthritische Wirkung der erfindungsgemäßen Verbindungen kann in üblicher Weise im Tierexperiment im Adjuvans-Arthritis-Modell bestimmt werden. Die dermatologische Aktivität, beispielsweise für die Behandlung von Akne, kann u. a. durch die komedolytische Aktivität und die Fähigkeit nachgewiesen werden, die Anzahl der Zysten im Modell der Rhino--Maus zu reduzieren.
# Diese Methode ist von L. H. Kligman et al in The Journal of Investigative Dermatology 73, 354 - 358 (1979) und von J.A. Mezick et al. in "Models of Dermatalogy" (Ed. Maibach, Läwe), Vol. 2, S. 59-63, Karger, Basel 1985) beschrieben.
# Die Testsubstanz wurde in einem geeigneten Vehikel auf der gesamten Rückenpartie der Rhino-Maus topisch aufgetragen (100 µl), einmal täglich, an fünf aufeinanderfolgenden Tagen pro Woche, zwei Wochen lang ungefähr 72 h nach der letzten Behandlung wurde die dorsale Haut entfernt und in 0,5 Xiger Essigsäure 18 h bei 4-6°C belassen. Danach wurde eine ca. 2 x 5 cm^2 große Fläche herausgeschnitten, die Epidermis abgeschält, auf einen Objektträger aufgebracht (mit der dermalen Seite nach oben) und mittels Alkohol/Xylol wasserfrei gespült, bis die Epidermis durchsichtig erscheint. Die Probe wurde durch Uberziehen mit Permount fixiert und mikroskopisch ausgewertet. […]
smiles,measurement,setting,value
"C/C(=C\c1cc(C(=O)O)no1)c1ccc2c(c1)C(C)(C)CCC2(C)C [Beispiel 17a, (E)-5-[2-(5,5,8,8-Tetramethyl-5,6,7,8-tetrahydro-naphth--2-yl)-1-propenyl]isoxazol-3-carbonsäure]",Reduktion des Utriculusdurchmessers in %,"Dosis 0,2 mg/ml","45,1%"
same,Reduktion des Utriculusdurchmessers in %,Dosis 2 mg/ml,"75,6%"
